From PubChem BioAssay (NCI)
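Dose response: 5 concentrations. Exposure: 48 h. Format: 96-well plates. Endpoint: linear interpolation; highest concentration if not reached. GI50 is the concentration that inhibits growth by half. TGI is the concentration that stops growth completely.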

Experiments:
Assay in all cases: NCI tumour cell line growth inhibition, 48 h
[1] = tested on: P388/ADR leukemia
[2] = tested on: SN12K1 renal
[3] = tested on: KM20L2 colon
[4] = tested on: HOP-18 NSCLC
[5] = tested on: DMS 273 small cell lung
[6] = tested on: DMS 114 small cell lung
[7] = tested on: P388 leukemia
[8] = tested on: M19-MEL melanoma
[9] = tested on: XF 498 CNS
[10] = tested on: LXFL 529 NSCLC
[11] = tested on: RXF-631 renal

| Structure (SMILES) | TGI [3] | TGI [4] | TGI [5] | TGI [6] | TGI [8] | TGI [9] | TGI [10] | further results |
| --- | --- | --- | --- | --- | --- | --- | --- | --- |
| [C-]#[O+].[Cl][Sn]([Cl])[Cl].[Cl][Sn]([Cl])[Cl].[Pt].c1cnc2c(c1)ccc1cccnc12 | 4.54 µM | > 100 µM | 6 µM | > 39.4 µM | > 31.6 µM | 44.3 µM | – | GI50 [1]: 1.78 µM; TGI [1]: 5.1 µM; GI50 [2]: 3.37 µM; TGI [2]: 16.7 µM; GI50 [3]: 1.97 µM; GI50 [4]: 6.73 µM; GI50 [5]: 2.59 µM; GI50 [6]: 4.14 µM; GI50 [7]: 2.12 µM; TGI [7]: 5.68 µM; GI50 [8]: 3.25 µM; GI50 [9]: 9.1 µM |
| CCOC(=O)C(Cc1ccc(N=NN(C)C)cc1)NC(=O)CC1c2ccccc2-c2ccccc21 (stereo not drawn) | – | – | > 100 µM | > 100 µM | > 100 µM | – | > 100 µM | – |
| O=C(O)C1CCC(=O)N1C(=O)COc1cc(Cl)c(Cl)cc1Cl (stereo not drawn) | > 100 µM | – | > 100 µM | > 100 µM | > 100 µM | > 100 µM | > 100 µM | TGI [11]: > 100 µM |
| Cc1cc(-c2ccc(N=Nc3ccc4c(S(=O)(=O)O)cc(S(=O)(=O)O)c(N)c4c3O)c(C)c2)ccc1N=Nc1ccc2c(S(=O)(=O)O)cc(S(=O)(=O)O)c(N)c2c1O | > 100 µM | > 100 µM | > 100 µM | > 100 µM | > 100 µM | > 100 µM | – | TGI [1]: > 100 µM; TGI [2]: > 100 µM; GI50 [4]: > 100 µM; TGI [7]: > 100 µM |
| NC1CCC2(O)c3ccccc3C2C1 (stereo not drawn) | > 100 µM | > 100 µM | > 100 µM | > 100 µM | > 100 µM | > 100 µM | > 100 µM | – |
| CN1C(c2ccccc2)CC(O)CC1c1ccccc1 (stereo not drawn) | > 100 µM | – | > 100 µM | > 100 µM | > 100 µM | – | > 100 µM | – |
| COc1cccc(/C=N/[N-]C(N)=O)c1[O-].[Cu+2].[OH3+] | 20.6 µM | – | – | – | – | 29.4 µM | – | GI50 [9]: 15.9 µM |
| Cc1nc2sccn2c1C(=O)NNC(N)=S | > 100 µM | > 100 µM | > 100 µM | > 100 µM | – | – | > 100 µM | – |
| CCOC(=O)C1C(c2ccc(Br)cc2)N(Cc2ccccc2)C(c2ccc(Br)cc2)C(C(=O)OC)S1(=O)=O (stereo not drawn) | > 100 µM | 72.9 µM | > 100 µM | > 100 µM | > 100 µM | > 100 µM | > 100 µM | – |
| COc1c(OC2OC(CO)C(O)C(O)C2O)cc2c(c1OC)-c1ccc(OC)c(=O)cc1C(NC(C)=O)CC2 (stereo not drawn) | > 100 µM | > 100 µM | > 100 µM | > 100 µM | > 100 µM | > 100 µM | > 100 µM | TGI [11]: > 100 µM |
| CC1CC(c2ccccc2)=Nc2ccccc2S1 (stereo not drawn) | > 100 µM | – | > 100 µM | > 100 µM | > 100 µM | > 100 µM | > 100 µM | TGI [11]: > 100 µM |
| COCOC1CCCC[C@@]1(OCCOCCO[C@@]1(c2ccccc2)CCCC[C@H]1OCOC)c1ccccc1 (stereo partly drawn) | > 100 µM | > 100 µM | > 100 µM | > 100 µM | > 100 µM | > 100 µM | > 100 µM | – |
| CC(C)C(NCc1c2ccccc2[n+](C)c2ccccc12)C(=O)O (stereo not drawn) | 7.33 µM | 18.1 µM | 13.3 µM | 5.79 µM | 21.2 µM | 17.8 µM | 14 µM | TGI [11]: 17.1 µM |
| CN(Cc1cnc2nc(N)nc(N)c2n1)c1ccc(C(=O)NC(CCC(=O)O)C(=O)O)c2ccccc12 (stereo not drawn) | – | – | – | – | – | – | – | GI50 [3]: 0.00489 µM; GI50 [4]: 0.0452 µM; GI50 [5]: 0.000946 µM; GI50 [8]: 0.0725 µM |
| C/C(CCN(C)C)=N/O | 22.8 µM | 29.6 µM | 18.3 µM | 20.7 µM | 23 µM | 33.6 µM | 4.72 µM | – |
| COCc1cc2c(s1)C(=O)C1=C(C2=O)C2(C=C(Br)C(=O)C(Br)=C2)CCN1 | – | 28.4 µM | 13.6 µM | 3.34 µM | 2.77 µM | 19.6 µM | 11.7 µM | – |
| Cc1cc(NC(=O)NC(=O)c2ccccc2NC(=O)CN(C)C)ccc1Oc1ncc(Br)cn1 | 34.7 µM | – | > 100 µM | 35.7 µM | > 100 µM | > 100 µM | > 100 µM | – |
| CCOC(=O)CNC(=O)c1[nH]cnc1/N=N/N(C)C | – | – | > 100 µM | > 100 µM | > 100 µM | – | > 100 µM | – |
